Test results: PubChem BioAssay (NCI)
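Five compound concentrations were applied to cells in 96-well plates for 48 hours; endpoints were derived by simple linear interpolation of the resulting dose-response curve. TGI: concentration producing complete growth inhibition.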

Experiments:
Experiment in all cases: NCI tumour cell line growth inhibition, 48 h
HOP-92 NSCLC = system: HOP-92 NSCLC
K-562 leukemia = system: K-562 leukemia
HCT-15 colon = system: HCT-15 colon
SN12C renal = system: SN12C renal
RXF-631 renal = system: RXF-631 renal
CCRF-CEM leukemia = system: CCRF-CEM leukemia
SK-OV-3 ovarian = system: SK-OV-3 ovarian
DLD-1 colon = system: DLD-1 colon
HOP-62 NSCLC = system: HOP-62 NSCLC
A498 renal = system: A498 renal
UACC-62 melanoma = system: UACC-62 melanoma
OVCAR-8 ovarian = system: OVCAR-8 ovarian
SR leukemia = system: SR leukemia
SF-539 CNS = system: SF-539 CNS
TK-10 renal = system: TK-10 renal
DMS 114 small cell lung = system: DMS 114 small cell lung
SNB-75 CNS = system: SNB-75 CNS
NCI-H460 lung = system: NCI-H460 lung
RPMI-8226 leukemia = system: RPMI-8226 leukemia
MALME-3M melanoma = system: MALME-3M melanoma
U251 CNS = system: U251 CNS
SF-268 CNS = system: SF-268 CNS
COLO 205 colon = system: COLO 205 colon
SW-620 colon = system: SW-620 colon
RXF 393 renal = system: RXF 393 renal
LOX IMVI melanoma = system: LOX IMVI melanoma
786-0 renal = system: 786-0 renal
OVCAR-4 ovarian = system: OVCAR-4 ovarian
IGROV1 ovarian = system: IGROV1 ovarian
NCI-H23 lung = system: NCI-H23 lung
HT29 colon = system: HT29 colon
SK-MEL-5 melanoma = system: SK-MEL-5 melanoma
A549 NSCLC = system: A549 NSCLC
DMS 273 small cell lung = system: DMS 273 small cell lung
KM12 colon = system: KM12 colon
NCI-H226 lung = system: NCI-H226 lung
SK-MEL-28 melanoma = system: SK-MEL-28 melanoma
M14 melanoma = system: M14 melanoma
HOP-18 NSCLC = system: HOP-18 NSCLC
NCI-H522 lung = system: NCI-H522 lung
XF 498 CNS = system: XF 498 CNS
OVCAR-3 ovarian = system: OVCAR-3 ovarian
MOLT-4 leukemia = system: MOLT-4 leukemia
LXFL 529 NSCLC = system: LXFL 529 NSCLC
SNB-19 CNS = system: SNB-19 CNS
HL-60(TB) leukemia = system: HL-60(TB) leukemia
SF-295 CNS = system: SF-295 CNS
SNB-78 CNS = system: SNB-78 CNS
HCT-116 colon = system: HCT-116 colon
M19-MEL melanoma = system: M19-MEL melanoma
CAKI-1 renal = system: CAKI-1 renal
HCC-2998 colon = system: HCC-2998 colon
KM20L2 colon = system: KM20L2 colon
UACC-257 melanoma = system: UACC-257 melanoma
ACHN renal = system: ACHN renal
UO-31 renal = system: UO-31 renal
OVCAR-5 ovarian = system: OVCAR-5 ovarian
SK-MEL-2 melanoma = system: SK-MEL-2 melanoma
EKVX NSCLC = system: EKVX NSCLC

`CCCCCCC[C@@H](O)CC(=O)NC(CC(C)C)C(=O)NC(CCC(=O)O)C(=O)NC1C(=O)NC(C(C)C)C(=O)NC(CC(C)C)C(=O)NC(CO)C(=O)NC(CC(C)C)C(=O)NC(CO)C(=O)NC(C(C)CC)C(=O)OC1C` (stereo partly drawn) was tested. Which TGI (HOP-92 NSCLC) did it give?
The TGI was 18.7 µM.

And the TGI (K-562 leukemia)?
The TGI was 30.9 µM.

What about the TGI (HCT-15 colon) of the same compound?
Its TGI is 4.42 µM.

What about the TGI (SN12C renal) of the same compound?
Its TGI is 29.5 µM.

And the TGI (RXF-631 renal)?
The TGI was 28.8 µM.

And the TGI (CCRF-CEM leukemia)?
The TGI was 25.8 µM.

What about the TGI (SK-OV-3 ovarian) of the same compound?
Its TGI is 34.4 µM.

What about the TGI (DLD-1 colon) of the same compound?
The TGI was 3.04 µM.

What about the TGI (HOP-62 NSCLC) of the same compound?
The TGI was 24.4 µM.

And the TGI (A498 renal)?
The TGI was 31.6 µM.

And the TGI (UACC-62 melanoma)?
Its TGI is 29.1 µM.

What about the TGI (OVCAR-8 ovarian) of the same compound?
Its TGI is 29.8 µM.

What about the TGI (SR leukemia) of the same compound?
Its TGI is 35.3 µM.

What about the TGI (SF-539 CNS) of the same compound?
Its TGI is 4.77 µM.

What about the TGI (TK-10 renal) of the same compound?
Its TGI is 28.9 µM.

And the TGI (DMS 114 small cell lung)?
The TGI was 33.1 µM.

And the TGI (SNB-75 CNS)?
The TGI was 18 µM.

What about the TGI (NCI-H460 lung) of the same compound?
The TGI was 11.3 µM.

What about the TGI (RPMI-8226 leukemia) of the same compound?
The TGI was 33.5 µM.

And the TGI (MALME-3M melanoma)?
Its TGI is 17.6 µM.

And the TGI (U251 CNS)?
The TGI was 20.9 µM.

And the TGI (SF-268 CNS)?
Its TGI is 30.5 µM.

And the TGI (COLO 205 colon)?
The TGI was 2.93 µM.

And the TGI (SW-620 colon)?
Its TGI is 28.8 µM.

And the TGI (RXF 393 renal)?
The TGI was 26 µM.

And the TGI (LOX IMVI melanoma)?
The TGI was 31.2 µM.

And the TGI (786-0 renal)?
The TGI was 27.9 µM.

And the TGI (OVCAR-4 ovarian)?
Its TGI is 34.4 µM.

What about the TGI (IGROV1 ovarian) of the same compound?
The TGI was 31.6 µM.

What about the TGI (NCI-H23 lung) of the same compound?
Its TGI is 29.9 µM.

And the TGI (HT29 colon)?
Its TGI is 31 µM.

What about the TGI (SK-MEL-5 melanoma) of the same compound?
The TGI was 29.9 µM.

And the TGI (A549 NSCLC)?
Its TGI is 36.1 µM.

And the TGI (DMS 273 small cell lung)?
Its TGI is 28.1 µM.

What about the TGI (KM12 colon) of the same compound?
Its TGI is 26.6 µM.

What about the TGI (NCI-H226 lung) of the same compound?
Its TGI is 34.2 µM.

And the TGI (SK-MEL-28 melanoma)?
Its TGI is 30.6 µM.

What about the TGI (M14 melanoma) of the same compound?
Its TGI is 20.9 µM.

And the TGI (HOP-18 NSCLC)?
Its TGI is 24.9 µM.

What about the TGI (NCI-H522 lung) of the same compound?
Its TGI is 26.6 µM.

And the TGI (XF 498 CNS)?
The TGI was 15.2 µM.

And the TGI (OVCAR-3 ovarian)?
The TGI was 31.1 µM.

What about the TGI (MOLT-4 leukemia) of the same compound?
The TGI was 39.9 µM.

And the TGI (LXFL 529 NSCLC)?
The TGI was 25.8 µM.

And the TGI (SNB-19 CNS)?
Its TGI is 16.6 µM.

What about the TGI (HL-60(TB) leukemia) of the same compound?
Its TGI is 37.2 µM.

What about the TGI (SF-295 CNS) of the same compound?
The TGI was 22.2 µM.

What about the TGI (SNB-78 CNS) of the same compound?
The TGI was 34.3 µM.

And the TGI (HCT-116 colon)?
Its TGI is 25.7 µM.

What about the TGI (M19-MEL melanoma) of the same compound?
The TGI was 22.6 µM.

And the TGI (CAKI-1 renal)?
Its TGI is 37.6 µM.

What about the TGI (HCC-2998 colon) of the same compound?
The TGI was 28.6 µM.

And the TGI (KM20L2 colon)?
The TGI was 30.5 µM.

And the TGI (UACC-257 melanoma)?
The TGI was 29 µM.

And the TGI (ACHN renal)?
The TGI was 25.7 µM.

What about the TGI (UO-31 renal) of the same compound?
The TGI was 33.6 µM.

And the TGI (OVCAR-5 ovarian)?
The TGI was 31.8 µM.

What does the source list for `CC(C)=CC1CCc2ccccc2N1S(=O)(=O)c1ccc(C)cc1` (stereo not drawn)?
TGI (HOP-92 NSCLC): 7.61 µM; TGI (K-562 leukemia): > 100 µM; TGI (SK-MEL-2 melanoma): 7.12 µM; TGI (HCT-15 colon): > 31.6 µM; TGI (SN12C renal): > 100 µM; TGI (RXF-631 renal): > 100 µM; TGI (CCRF-CEM leukemia): > 100 µM; TGI (SK-OV-3 ovarian): > 100 µM; TGI (DLD-1 colon): > 100 µM; TGI (HOP-62 NSCLC): 14 µM; TGI (A498 renal): 6.98 µM; TGI (UACC-62 melanoma): 16.1 µM; TGI (OVCAR-8 ovarian): > 31.3 µM; TGI (SF-539 CNS): 3.14 µM; TGI (EKVX NSCLC): > 100 µM; TGI (TK-10 renal): > 31.6 µM; TGI (DMS 114 small cell lung): 4.12 µM; TGI (SNB-75 CNS): > 25.1 µM; TGI (NCI-H460 lung): 8.02 µM; TGI (RPMI-8226 leukemia): 5.07 µM; TGI (MALME-3M melanoma): 51.5 µM; TGI (U251 CNS): 4.58 µM; TGI (SF-268 CNS): 85.8 µM; TGI (COLO 205 colon): 5.4 µM; TGI (SW-620 colon): > 100 µM; TGI (RXF 393 renal): 5.14 µM; TGI (LOX IMVI melanoma): 12.6 µM; TGI (786-0 renal): 12.1 µM; TGI (OVCAR-4 ovarian): > 31.6 µM; TGI (IGROV1 ovarian): > 100 µM; TGI (NCI-H23 lung): 5.7 µM; TGI (HT29 colon): 3.24 µM; TGI (SK-MEL-5 melanoma): 5.12 µM; TGI (A549 NSCLC): 18.9 µM; TGI (DMS 273 small cell lung): 1.59 µM; TGI (KM12 colon): 6.16 µM; TGI (NCI-H226 lung): 6.05 µM; TGI (SK-MEL-28 melanoma): > 40.1 µM; TGI (M14 melanoma): 7.38 µM; TGI (HOP-18 NSCLC): > 100 µM; TGI (NCI-H522 lung): 5.77 µM; TGI (XF 498 CNS): 26.8 µM; TGI (OVCAR-3 ovarian): 4.25 µM; TGI (MOLT-4 leukemia): 10.3 µM; TGI (LXFL 529 NSCLC): > 47.2 µM; TGI (SNB-19 CNS): > 100 µM; TGI (SF-295 CNS): > 21.4 µM; TGI (SNB-78 CNS): > 100 µM; TGI (HCT-116 colon): 6.69 µM; TGI (M19-MEL melanoma): 13.7 µM; TGI (HCC-2998 colon): 7.95 µM; TGI (KM20L2 colon): 3.12 µM; TGI (UACC-257 melanoma): 23.6 µM; TGI (ACHN renal): > 31.6 µM; TGI (UO-31 renal): > 100 µM; TGI (OVCAR-5 ovarian): > 31.6 µM
